# Results taken from PubChem BioAssay (NCI).
#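 Protocol summary: plate cells (96-well), add compound at 5 concentrations, incubate 48 h, interpolate endpoints linearly. TGI marks complete inhibition of growth.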
# What was measured:
# Test in all cases: growth of human tumour cells (NCI), 48 h
# T-47D breast = system: T-47D breast
# TK-10 renal = system: TK-10 renal
# HOP-62 NSCLC = system: HOP-62 NSCLC
# HT29 colon = system: HT29 colon
# ACHN renal = system: ACHN renal
# IGROV1 ovarian = system: IGROV1 ovarian
# A498 renal = system: A498 renal
# HCC-2998 colon = system: HCC-2998 colon
# HL-60(TB) leukemia = system: HL-60(TB) leukemia
# PC-3 prostate = system: PC-3 prostate
smiles,measurement,setting,value
COC(=O)[C@@H]1C=C[C@@H](C#N)n2c(=O)n(-c3ccccc3)c(=O)n21,TGI,T-47D breast,94.1 µM
same,TGI,TK-10 renal,> 100 µM
same,TGI,HOP-62 NSCLC,56.2 µM
same,TGI,HT29 colon,93.2 µM
same,TGI,ACHN renal,> 100 µM
same,TGI,IGROV1 ovarian,> 100 µM
same,TGI,A498 renal,> 100 µM
same,TGI,HCC-2998 colon,> 100 µM
CSc1c(C(=O)Nc2ccc(C)cc2)c(N)nn1-c1ccccc1,TGI,HL-60(TB) leukemia,> 100 µM
same,TGI,T-47D breast,> 100 µM
same,TGI,TK-10 renal,> 100 µM
same,TGI,HOP-62 NSCLC,> 100 µM
same,TGI,HT29 colon,> 100 µM
same,TGI,ACHN renal,> 100 µM
same,TGI,PC-3 prostate,> 100 µM
same,TGI,IGROV1 ovarian,> 100 µM
same,TGI,A498 renal,75.1 µM
same,TGI,HCC-2998 colon,> 100 µM
Clc1ccccc1/C=C/c1nsc(/C=C/c2ccccc2Cl)n1,TGI,HL-60(TB) leukemia,52.5 µM
same,TGI,T-47D breast,42.8 µM
same,TGI,TK-10 renal,78.1 µM
same,TGI,HOP-62 NSCLC,> 100 µM
same,TGI,HT29 colon,> 100 µM
same,TGI,ACHN renal,> 100 µM
same,TGI,PC-3 prostate,> 100 µM
same,TGI,IGROV1 ovarian,> 100 µM
same,TGI,A498 renal,> 100 µM
N#Cc1ncn(-c2ccccc2)c1N,TGI,HL-60(TB) leukemia,> 100 µM
same,TGI,T-47D breast,> 100 µM
same,TGI,TK-10 renal,> 100 µM
same,TGI,HOP-62 NSCLC,> 100 µM
same,TGI,HT29 colon,> 100 µM
same,TGI,ACHN renal,> 100 µM
same,TGI,PC-3 prostate,> 100 µM
same,TGI,IGROV1 ovarian,> 100 µM
same,TGI,A498 renal,> 100 µM
same,TGI,HCC-2998 colon,> 100 µM
OC1c2ccccc2[C@@H]2[C@H]1[C@@H](c1ccccc1)C1(Cc3ccccc3C1O)[C@H]2c1ccccc1 (some centres not stated),TGI,HL-60(TB) leukemia,4.47 µM
same,TGI,T-47D breast,22.5 µM
same,TGI,TK-10 renal,29.7 µM
same,TGI,HOP-62 NSCLC,22.9 µM
same,TGI,HT29 colon,6.87 µM
same,TGI,ACHN renal,16.7 µM
same,TGI,PC-3 prostate,8.87 µM
same,TGI,IGROV1 ovarian,16.6 µM
same,TGI,A498 renal,23.6 µM
same,TGI,HCC-2998 colon,4.58 µM
CCOC(=O)c1ncoc1[C@H]1COC(C)(C)O1,TGI,HL-60(TB) leukemia,> 100 µM
same,TGI,TK-10 renal,> 100 µM
same,TGI,HOP-62 NSCLC,> 100 µM
same,TGI,HT29 colon,> 100 µM
same,TGI,ACHN renal,> 100 µM
same,TGI,IGROV1 ovarian,> 100 µM
same,TGI,HCC-2998 colon,> 100 µM
CN1CCN(c2nc3ccccc3nc2C(=O)c2ccc(Cl)cc2)CC1,TGI,HL-60(TB) leukemia,98 µM
same,TGI,T-47D breast,> 100 µM
same,TGI,TK-10 renal,> 100 µM
same,TGI,HOP-62 NSCLC,> 100 µM
same,TGI,HT29 colon,> 100 µM
same,TGI,ACHN renal,> 100 µM
same,TGI,PC-3 prostate,> 100 µM
same,TGI,IGROV1 ovarian,> 100 µM
same,TGI,A498 renal,> 100 µM
same,TGI,HCC-2998 colon,99.7 µM
O=C1/C(=C\c2ccc([N+](=O)[O-])cc2)Sc2scc(-c3ccc(O)c(O)c3)[n+]21,TGI,HL-60(TB) leukemia,8.93 µM
same,TGI,T-47D breast,54.6 µM
same,TGI,TK-10 renal,10.6 µM
same,TGI,HOP-62 NSCLC,27.5 µM
same,TGI,HT29 colon,15.7 µM
same,TGI,ACHN renal,47.5 µM
same,TGI,PC-3 prostate,19.4 µM
same,TGI,IGROV1 ovarian,19.7 µM
same,TGI,HCC-2998 colon,19 µM
CSC(SC)=C1C(=O)NN=C1C,TGI,HL-60(TB) leukemia,> 100 µM
same,TGI,T-47D breast,> 100 µM
same,TGI,TK-10 renal,> 100 µM
same,TGI,HOP-62 NSCLC,> 100 µM
same,TGI,HT29 colon,> 100 µM
same,TGI,ACHN renal,> 100 µM
same,TGI,PC-3 prostate,> 100 µM
same,TGI,IGROV1 ovarian,> 100 µM
same,TGI,HCC-2998 colon,> 100 µM
CC(=O)N1c2ccccc2C(C)(C)OC1C(Cl)(Cl)Cl (configuration not stated),TGI,HL-60(TB) leukemia,36.7 µM
same,TGI,T-47D breast,> 100 µM
same,TGI,TK-10 renal,> 100 µM
same,TGI,HOP-62 NSCLC,> 100 µM
same,TGI,HT29 colon,> 100 µM
same,TGI,ACHN renal,> 100 µM
same,TGI,PC-3 prostate,> 100 µM
same,TGI,IGROV1 ovarian,> 100 µM
same,TGI,A498 renal,> 100 µM
same,TGI,HCC-2998 colon,74.2 µM
CCCCCCCCCCCCCCCC(=O)ON1C(=S)NC(C)(c2ccccc2)C1=S (configuration not stated),TGI,HL-60(TB) leukemia,> 100 µM
same,TGI,T-47D breast,> 100 µM
same,TGI,TK-10 renal,> 100 µM
same,TGI,HOP-62 NSCLC,> 100 µM
same,TGI,HT29 colon,> 100 µM
same,TGI,ACHN renal,> 100 µM
same,TGI,PC-3 prostate,> 100 µM
same,TGI,IGROV1 ovarian,> 100 µM
same,TGI,A498 renal,> 100 µM
same,TGI,HCC-2998 colon,> 100 µM
CC1=C2C(=O)O[C@@H](c3ccoc3)[C@]2(C)CCC1=O,TGI,T-47D breast,> 100 µM
same,TGI,HOP-62 NSCLC,> 100 µM
same,TGI,ACHN renal,> 100 µM
same,TGI,PC-3 prostate,> 100 µM
same,TGI,IGROV1 ovarian,> 100 µM
same,TGI,A498 renal,> 100 µM
same,TGI,HCC-2998 colon,> 100 µM
Oc1c(C2=NNC(c3cccs3)C2)ccc2ccccc12 (configuration not stated),TGI,T-47D breast,> 100 µM
same,TGI,TK-10 renal,> 100 µM
same,TGI,HOP-62 NSCLC,99.4 µM
same,TGI,HT29 colon,40 µM
same,TGI,ACHN renal,> 100 µM
same,TGI,PC-3 prostate,> 100 µM
same,TGI,IGROV1 ovarian,95.9 µM
same,TGI,A498 renal,56.5 µM
same,TGI,HCC-2998 colon,34.2 µM
Cc1ccc(S(=O)(=O)NC(=O)NC(CO)C(=O)O)cc1 (configuration not stated),TGI,HL-60(TB) leukemia,> 100 µM
same,TGI,T-47D breast,> 100 µM
same,TGI,TK-10 renal,> 100 µM
same,TGI,HOP-62 NSCLC,> 100 µM
same,TGI,HT29 colon,> 100 µM
same,TGI,ACHN renal,> 100 µM
same,TGI,PC-3 prostate,> 100 µM
same,TGI,IGROV1 ovarian,> 100 µM
Cc1cc2nc(N3C(=O)/C(=C/c4cccc([N+](=O)[O-])c4)N=C3c3ccccc3)sc2cc1C,TGI,HL-60(TB) leukemia,54.5 µM
same,TGI,T-47D breast,> 100 µM
same,TGI,TK-10 renal,> 100 µM
same,TGI,HOP-62 NSCLC,> 100 µM
same,TGI,HT29 colon,75.9 µM
same,TGI,ACHN renal,> 100 µM
same,TGI,PC-3 prostate,56.5 µM
same,TGI,IGROV1 ovarian,> 100 µM
same,TGI,HCC-2998 colon,53.7 µM
ClC(Cl)(Cl)C1CCOC1n1nc2ccccc2n1 (configuration not stated),TGI,HL-60(TB) leukemia,> 100 µM
same,TGI,T-47D breast,> 100 µM
same,TGI,TK-10 renal,> 100 µM
same,TGI,HOP-62 NSCLC,> 100 µM
same,TGI,HT29 colon,> 100 µM
same,TGI,PC-3 prostate,> 100 µM
same,TGI,IGROV1 ovarian,> 100 µM
same,TGI,A498 renal,> 100 µM
same,TGI,HCC-2998 colon,> 100 µM
Cc1c(C(=O)CSc2nc3ccc([N+](=O)[O-])cc3[nH]2)c(=O)n(-c2ccccc2)n1C,TGI,HL-60(TB) leukemia,> 100 µM
same,TGI,TK-10 renal,> 100 µM
same,TGI,HOP-62 NSCLC,> 100 µM
same,TGI,HT29 colon,> 100 µM
same,TGI,ACHN renal,> 100 µM
same,TGI,IGROV1 ovarian,> 100 µM
same,TGI,A498 renal,> 100 µM
same,TGI,HCC-2998 colon,> 100 µM
CCOc1ccc2ccccc2c1NC1=NCCO1,TGI,HL-60(TB) leukemia,49.6 µM
same,TGI,T-47D breast,> 100 µM
same,TGI,TK-10 renal,> 100 µM
same,TGI,HOP-62 NSCLC,74.2 µM
same,TGI,HT29 colon,> 100 µM
same,TGI,ACHN renal,> 100 µM
same,TGI,IGROV1 ovarian,> 100 µM
same,TGI,A498 renal,93.8 µM
same,TGI,HCC-2998 colon,> 100 µM
CC12CC3CC/C(=N\O)C(C1)C3(N1CCOCC1)C/C2=N/O (configuration not stated),TGI,HL-60(TB) leukemia,> 100 µM
same,TGI,T-47D breast,> 100 µM
same,TGI,HOP-62 NSCLC,> 100 µM
same,TGI,HT29 colon,> 100 µM
same,TGI,ACHN renal,> 100 µM
same,TGI,PC-3 prostate,> 100 µM
same,TGI,IGROV1 ovarian,> 100 µM
same,TGI,A498 renal,> 100 µM
same,TGI,HCC-2998 colon,> 100 µM
CSCCC(NCc1c(O)ccc2ccc(=O)oc12)C(=O)O (configuration not stated),TGI,HL-60(TB) leukemia,> 100 µM
same,TGI,T-47D breast,> 100 µM
same,TGI,TK-10 renal,> 100 µM
same,TGI,HOP-62 NSCLC,> 100 µM
same,TGI,HT29 colon,> 100 µM
same,TGI,ACHN renal,> 100 µM
same,TGI,PC-3 prostate,> 100 µM
same,TGI,IGROV1 ovarian,> 100 µM
same,TGI,HCC-2998 colon,> 100 µM
O=[N+]([O-])c1ccc(Cl)cc1-n1nc(-c2ccccc2)cc1-c1ccccc1,TGI,HL-60(TB) leukemia,> 100 µM
same,TGI,T-47D breast,> 100 µM
same,TGI,TK-10 renal,> 100 µM
same,TGI,HT29 colon,> 100 µM
same,TGI,ACHN renal,> 100 µM
same,TGI,PC-3 prostate,> 100 µM
same,TGI,IGROV1 ovarian,> 100 µM
same,TGI,A498 renal,> 100 µM
same,TGI,HCC-2998 colon,> 100 µM
CC(C)C1CC=NN1C(=O)OC(C)(C)C (configuration not stated),TGI,HL-60(TB) leukemia,> 100 µM
same,TGI,T-47D breast,> 100 µM
same,TGI,TK-10 renal,> 100 µM
same,TGI,HOP-62 NSCLC,> 100 µM
same,TGI,HT29 colon,> 100 µM
same,TGI,ACHN renal,> 100 µM
same,TGI,IGROV1 ovarian,> 100 µM
same,TGI,A498 renal,> 100 µM
same,TGI,HCC-2998 colon,> 100 µM
